By Ki is commonly meant a measure of affinity in units of concentration, obtained from inhibition or displacement.

Experimental findings from patent US9056867B2, “N-substituted heterocyclyl carboxamides” (NOVARTIS AG, priority 2011, dated 2015) are described below.

T1 sequence (P13569 with tags, fused parts or gaps DEL508-508): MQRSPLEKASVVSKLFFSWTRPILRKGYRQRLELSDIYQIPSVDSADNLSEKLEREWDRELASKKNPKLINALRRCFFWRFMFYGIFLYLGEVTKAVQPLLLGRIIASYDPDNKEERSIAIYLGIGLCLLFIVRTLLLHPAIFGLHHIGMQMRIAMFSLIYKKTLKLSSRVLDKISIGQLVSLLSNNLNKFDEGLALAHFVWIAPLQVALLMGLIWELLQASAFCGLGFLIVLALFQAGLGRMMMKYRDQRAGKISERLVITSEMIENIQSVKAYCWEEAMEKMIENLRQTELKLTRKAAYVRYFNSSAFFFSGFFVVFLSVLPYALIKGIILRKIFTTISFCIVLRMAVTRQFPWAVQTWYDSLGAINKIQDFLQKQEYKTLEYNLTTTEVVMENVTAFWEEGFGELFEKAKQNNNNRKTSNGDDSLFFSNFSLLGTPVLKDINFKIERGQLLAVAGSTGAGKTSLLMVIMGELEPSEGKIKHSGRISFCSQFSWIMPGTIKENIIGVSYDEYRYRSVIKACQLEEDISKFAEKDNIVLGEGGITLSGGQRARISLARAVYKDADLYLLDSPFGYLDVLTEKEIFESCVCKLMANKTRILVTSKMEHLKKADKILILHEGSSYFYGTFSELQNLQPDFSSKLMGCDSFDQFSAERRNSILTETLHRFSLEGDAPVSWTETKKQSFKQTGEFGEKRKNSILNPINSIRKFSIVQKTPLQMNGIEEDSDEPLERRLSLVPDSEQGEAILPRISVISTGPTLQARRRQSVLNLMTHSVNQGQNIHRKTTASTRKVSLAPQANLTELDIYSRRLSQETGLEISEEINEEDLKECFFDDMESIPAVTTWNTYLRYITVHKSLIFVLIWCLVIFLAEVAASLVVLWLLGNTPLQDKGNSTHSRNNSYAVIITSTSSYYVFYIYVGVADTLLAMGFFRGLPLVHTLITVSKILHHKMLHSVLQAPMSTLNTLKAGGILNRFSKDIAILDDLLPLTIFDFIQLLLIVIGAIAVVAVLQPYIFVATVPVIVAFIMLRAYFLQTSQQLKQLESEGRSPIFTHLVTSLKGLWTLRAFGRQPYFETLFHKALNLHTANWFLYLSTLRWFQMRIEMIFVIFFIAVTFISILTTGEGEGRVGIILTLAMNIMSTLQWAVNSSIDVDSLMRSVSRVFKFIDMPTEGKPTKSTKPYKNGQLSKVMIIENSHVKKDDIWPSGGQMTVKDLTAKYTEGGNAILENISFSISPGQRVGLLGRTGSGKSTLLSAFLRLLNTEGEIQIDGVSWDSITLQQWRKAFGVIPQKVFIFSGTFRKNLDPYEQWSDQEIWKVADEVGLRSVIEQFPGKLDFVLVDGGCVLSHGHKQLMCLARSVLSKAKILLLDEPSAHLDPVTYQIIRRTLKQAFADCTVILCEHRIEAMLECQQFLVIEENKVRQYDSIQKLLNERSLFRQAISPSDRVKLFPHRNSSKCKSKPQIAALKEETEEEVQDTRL

The first assay has as its target T1, ΔF508-CFTR channel (Homo sapiens, UniProt P13569, DEL508-508).
T1 construct: expressed in transfected cells
Put plainly: CFTR potentiator assays (membrane potential assay, IonWorks Quattro assay, ion transport assay); the patent does not say which one gave the values. It counts as cell-based. The settings on record: cells stably expressing ΔF508-CFTR, forskolin present; values given in μM; read-out: Ki values in the data measurements described above. The text has this: CFTR activity can be quantified by measuring the transmembrane potential. The means for measuring the transmembrane potential in a biological system can employ a number of methods including electrophysiological and optical fluoresence-based membrane potential assays.
The optical membrane potential assay utilises a negatively charged potentiometric dye, such as the FLIPR membrane potential dye (FMP) (see Baxter D F, Kirk M, Garcia A F, Raimondi A, Holmqvist M H, Flint K K, Bojanic D, Distefano P S, Curtis R, Xie Y. ‘A novel membrane potential-sensitive fluorescent dye improves cell-based assays for ion channels.’ J Biomol Screen. 2002 Feb.; 7(1):79-85) which when extraceullar is bound to a quenching agent. Upon cellular depolarisation the negatively charged dye redistributes to the intracellular compartment, unbinding from the membrane impermeant quench agent, yielding an increase in fluorescence. This change in fluoresence is proportional to the change in transmembrane potential which can result from the activity of CFTR. The changes in fluorescence can be monitored in real time by an appropriately equipped fluorescence detector such as the FLIPR (fluorometric imaging plate reader) in 96 or 384-well microtitre plates.
Chinese hamster ovary (CHO) cells stably expressing the ΔF508-CFTR channel were used for membrane potential experiments. Cells were maintained at 37° C. in 5% v/v CO2 at 100% humidity in Modified Eagles medium (MEM) supplemenetd with 8% v/v foetal calf serum, 100 μg/ml methotrexate and 100 U/ml penicillin/streptomycin. Cells were grown in 225 cm^2 tissue culture flasks. For membrane potential assays cells were seeded into 96 well plates at 40,000 cells per well, allowed to adhere and then maintained at 26° C. for 48 h to facilitate channel insertion.
The membrane potential screening assay utilised a low chloride ion containing extraceullular solution (˜5 mM) combined with a double addition protocol. The first addition was of buffer with or without test compound followed 5 minutes later by an addition of forskolin (1-20 μM)—this protocol favours maximum chloride efflux in response to ΔF508-CFTR activation. The ΔF508-CFTR mediated chloride ion efflux leads to a membrane depolarisation which is optically monitoried by the FMP dye.
Low chloride extracellular (mM): 120 Na-gluconate, 1.2 CaCl2, 3.3 KH2PO4, 0.8 K2HPO4, 1.2 MgCl2, 10.0 D-glucose, 20.0 HEPES, pH 7.4 with NaOH
FMP dye: made up as per manufacuturers instructions in low chloride extracellular solution detailed above, at 10× final concentration, and stored as 1 mL aliquots at −20° C.
CFTR activity can also be quantified electrophysiologically using the whole-cell configuration of the patch clamp technique (Hamill et al Pflugers Acrhive 1981). This assay directly measures the currents associated with chloride flow through CFTR channels whilst either maintaining or adjusting the transmembrane voltage. This assay can use either single glass micropipettes or parallel planar arrays to measure CFTR activity from native or recombinant cell systems. Currents measured using parallel planar arrays can be quantified using an appropriately equipped instrument such as the IonWorks Quattro (Molecular Devices) or the Qpatch (Sophion). The Quattro system can measure CFTR currents from either a single cell per recording well (HT configuration) or alternatively from a population of 64 cells per well (Population Patch Clamp PPC) (Finkel A, Wittel A, Yang N, Handran S, Hughes J, Costantin J. ‘Population patch clamp improves data consistency and success rates in the measurement of ionic currents.’ J Biomol Screen. 2006 Aug.; 11(5):488-96).
Chinese hamster ovary (CHO) cells stably expressing the ΔF508-CFTR channel were used for IonWorks Quattro experiments. […]
Background: Patch clamp records ionic current or voltage across a cell membrane.
As to `Nc1nc(C(F)(F)F)c(Br)nc1C(=O)Nc1nc(Cc2ccccc2)n[nH]1` [Example 24, 3-Amino-N-(3-benzyl-1H-1,2,4-triazol-5-yl)-6-bromo-5-(trifluoromethyl)pyrazin-2-carboxamide], the Ki is 0.02 µM.

As for `Nc1cc(C(F)(F)F)c(Cl)nc1C(=O)Nc1ccn[nH]1` [Example 22, 3-Amino-6-chloro-N-(1H-pyrazol-5-yl)-5-(trifluoromethyl)picolinamide], the Ki was 0.025 µM.

For `Nc1cc(C(F)(F)F)c(Br)nc1C(=O)Nc1ccn[nH]1` [Example 7, 3-Amino-6-bromo-5-trifluoromethyl-pyridine-2-carboxylic acid (2H-pyrazol-3-yl)-amide], the Ki is 0.01 µM.

For the compound `Nc1cc(C(F)(F)F)c(Br)nc1C(=O)Nc1cc(C(F)(F)F)n[nH]1` [Example 5, 3-Amino-6-bromo-5-trifluoromethyl-pyridine-2-carboxylic acid (5-trifluoromethyl-2H-pyrazol-3-yl)-amide], the Ki was determined as 0.07 µM.

On to `Nc1nc(C(F)(F)F)c(Cl)nc1C(=O)Nc1ccn[nH]1` [Example 14, 3-Amino-6-chloro-5-trifluoromethyl-pyrazine-2-carboxylic acid (2H-pyrazole-3-yl)amide], for which the Ki is 0.255 µM.

For the compound `Nc1cc(C(F)(F)F)c(Br)nc1C(=O)Nc1n[nH]c2nccnc12` [Example 18, 3-Amino-6-bromo-N-(1H-pyrazolo[4,3-b]pyrazin-3-yl)-5-(trifluoromethyl)picolinamide], the Ki came out at 0.004 µM.

For the compound `Cc1nnc(-c2ccc(-c3nc(C(=O)Nc4ccn[nH]4)c(N)cc3C(F)(F)F)cc2)o1` [Example 26.3, 3-Amino-6-[4-(5-methyl-[1,3,4]oxadiazol-2-yl)-phenyl]-5-trifluoromethyl-pyridine-2-carboxylic acid (2H-pyrazol-3-yl)-amide], the Ki worked out at 0.16 µM.

For the compound `Nc1nc(C(F)(F)F)c(Br)nc1C(=O)Nc1[nH]ncc1-c1ccccn1` [Example 19, 3-Amino-6-bromo-N-(4-(pyridin-2-yl)-1H-pyrazol-5-yl)-5-(trifluoromethyl)pyrazine-2-carboxamide], the Ki amounted to 1.55 µM.

The same assay, now with this note: cells stably expressing ΔF508-CFTR, forskolin present; values in nM; read-out: Ki values in the data measurements described above.
For `Nc1cc(C(F)(F)F)c(-c2ccc(F)cc2)nc1C(=O)Nc1cc[nH]n1` [Example 25.1, 3-Amino-6-(4-fluorophenyl)-N-(1H-pyrazol-3-yl)-5-(trifluoromethyl)picolinamide], the Ki came to 0.0038 µM.

Take `Cc1cn[nH]c1NC(=O)c1nc(C(F)(F)F)c(C(F)(F)F)nc1N` [Example 27, 3-Amino-5,6-bis-trifluoromethyl-pyrazine-2-carboxylic acid (4-methyl-2H-pyrazol-3-yl)-amide]: the Ki came to 0.019 µM.

For `Nc1cc(C(F)(F)F)c(-c2cccc(CN3CCCC3=O)c2)nc1C(=O)Nc1ccn[nH]1` [Example 26.1, 3-Amino-6-[3-(2-oxo-pyrrolidin-1-ylmethyl)-phenyl]-5-trifluoromethyl-pyridine-2-carboxylic acid (2H-pyrazol-3-yl)-amide], the Ki came out at 0.03 µM.

As to `Cc1cc(Cl)ccc1-c1nc(C(=O)Nc2ccn[nH]2)c(N)cc1C(F)(F)F` [Example 25.2, 3-Amino-6-(4-chloro-2-methyl-phenyl)-5-trifluoro methyl-pyridine-2-carboxylic acid (2H-pyrazol-3-yl)-amide], the Ki stood at 0.013 µM.

For the compound `COc1ccc(-c2nc(C(=O)Nc3ccn[nH]3)c(N)cc2C(F)(F)F)cn1` [Example 26.2, 5-Amino-6′-methoxy-3-trifluoromethyl-[2,3′]bipyridinyl-6-carboxylic acid (2H-pyrazol-3-yl)-amide], the Ki came out at 0.045 µM.

As for `COc1ncccc1-c1nc(C(=O)Nc2cc[nH]n2)c(N)cc1C(F)(F)F` [Example 25.3, 5-Amino-2′-methoxy-3-trifluoro methyl-[2,3′]bipyridinyl-6-carboxylic acid (1H-pyrazol-3-yl)-amide], the Ki came out at 0.014 µM.
